Tests used:
Assay type in all cases: in vivo
[1] = tested on: Plutella xylostella; experiment: Leaf dip method (cabbage) against Plutella xylostella (Example C); conditions: Plutella xylostella, foliar, 72 h, read-out: Observed Efficacy (%)
Source text: (§1) In which E represents the expected percentage of inhibition of the pests for the combination of two insecticides or one insecticide and one fungicide at defined doses (for example equal to x and y respectively), x is the percentage of inhibition observed for the pest/disease by the compound (1) at a given dose (equal to x), y is the percentage of inhibition observed for the pest/disease by the compound (2) or (3) at a defined dose (equal to y). When the percentage of inhibition observed for the combination is greater than E, there is a synergistic effect.
The leaf dip method was used, wherein the required quantity of the compound or respective compound combinations were weighed and dissolved in a test solution prepared in tubes. The tubes were put on a vortex at 2000 rpm for 90 min for proper mixing and then diluted with a 0.01% Triton-X solution to the desired test concentration. Cabbage leaves were dipped into the solution for 10 seconds, shade dried for 20 min and then transferred to single cells of bioassay trays. A single second instar larva was released into each cell and the tray was covered with a lid. The bio-assay trays were kept under laboratory conditions at a temperature of 25° C. and relative humidity of 70%. Observations on dead, moribund and live larvae were recorded 72 h after the release. Percent mortality was calculated by combining dead and moribund larvae and comparing the result with the one of the untreated control. The results are shown for compound of formula (I-1) in Table C.

[2] = tested on: Parastagonospora nodorum/Septoria nodorum/Stagnospora nodorum; experiment: Preventive glasshouse test against Septoria nodorum in wheat (Example J); conditions: 500 ppm, preventive spray
Source text: as §1
The single compounds or respective compound combinations were dissolved in 2% dimethyl sulfoxide/acetone and then mixed with water containing emulsifier to a calibrated spray volume of 50 mL. The test solutions were poured into spray bottles for further applications.
[…] One day after treatment, the plants were inoculated with a spore suspension containing 2.8×10^6 Stagnospora nodorum inoculum.
The inoculated plants were then kept in a greenhouse chamber at 22-25° C. temperature and 90-100% relative humidity for disease expression.
A visual assessment of the performance of the single compounds or compound combinations was carried out by rating the disease severity (0-100% scale) on treated plants 3, 7, 10 and 15 days after application. Efficacy (% control) of the single compounds and mixtures was calculated by comparing the disease rating in the treatment with the one of the untreated control. The compounds were also assessed for their plant compatibility by recording symptoms like necrosis, chlorosis and stunting. The results have been described for the compound of formula (I-1) in Table J.

[3] = tested on: Pyricularia oryzae; conditions: 500 ppm; preventive spray, rice
[4] = tested on: Erysiphe cichoracearum; experiment: Preventive glasshouse test against Erysiphe cichoracearum in cucumber (Example K); conditions: 500 ppm, preventive spray
Source text: as §1
The single compounds or the respective compound combinations were dissolved in 2% dimethyl sulfoxide/acetone and then mixed with water containing emulsifier to a calibrated spray volume of 50 mL. The test solutions were poured into spray bottles for further applications. […]
A visual assessment of the performance of the compounds and the respective compound combinations was carried out by rating the disease severity (0-100% scale) on treated plants 3, 7, 10 and 15 days after application. Efficacy (% control) of the single compounds or compound combinations was calculated by comparing the disease rating in the treatment with the one of the untreated control. The compounds were also assessed for their plant compatibility by recording symptoms like necrosis, chlorosis and stunting. […]

[5] = tested on: Helicoverpa armigera; experiment: Diet incorporation method against Helicoverpa armigera (Example A); conditions: Helicoverpa armigera, 96 h, read-out: Observed Efficacy (%)
Source text: as §1
The diet incorporation method was used, in which semi-synthetic diet was incorporated into the test solutions consisting either of the single compounds or respective compound combinations, when the temperature was approximately 50° C. in the bio-assay containers, then stirred thoroughly for proper mixing and allowed to cool for 30 min. The solidified diet was cut into equal pieces, and then each piece was transferred into one cell of a bio-assay tray. A single starved third instar larva was released into each of these cells of the bio-assay trays and the tray was covered with a lid. The bio-assay trays were kept under laboratory conditions at a temperature of 25° C. and relative humidity of 70%. Observations on dead, moribund and live larvae were recorded 96 h after the release of the larvae. Percent mortality was calculated by combining dead and moribund larvae and comparing the result to the one of the untreated control. The results are shown for the compound of formula (I-1) in Table A.

For `Cc1cc(Cl)cc(C(=O)NC(C)(C)C)c1NC(=O)c1cc(OC2CS(=O)(=O)C2)nn1-c1ncccc1Cl` [Compound (I-1), N-(2-(tert-butylcarbamoyl)-4-chloro-6-methylphenyl)-1-(3-chloropyridin-2-yl)-3-((1,1-dioxidothietan-3-yl)oxy)-1H-pyrazole-5-carboxamide], the pest or weed control at 0.0025 ppm ([1]; 0.0025 ppm) was 0%, the pest or weed control at 0.004 ppm ([1]; 0.004 ppm) was 0% and the pest or weed control at 0.005 ppm ([1]; 0.005 ppm) was 0%. For the same compound, the pest or weed control at 0.02 ppm ([1]; 0.02 ppm) was 12.5%, the pest or weed control at 0.03 ppm ([1]; 0.03 ppm) was 12.5% and the pest or weed control at 0.05 ppm ([1]; 0.05 ppm) was 12.5%. For the same compound, the pest or weed control at 0.1 ppm ([1]; 0.1 ppm) was 12.5%, the pest or weed control at 0.5 ppm ([1]; 0.5 ppm) was 25% and the “Observed Efficacy (%)” value [2] was 37%. The “Observed Efficacy (%)” value [3] was 38%, the “Observed Efficacy (%)” value [4] was 28% and the pest or weed control at 0.1 ppm ([5]; 0.1 ppm) was 12.5%. The pest or weed control at 0.41 ppm ([5]; 0.41 ppm) was 50% and the pest or weed control at 1 ppm ([5]; 1 ppm) was 25%.
